Results as given in US20100256357A1, “HETEROCYCLES USEFUL AS INHIBITORS OF CARBONIC ANHYDRASE” (Agouron Pharmaceuticals, Inc., priority 2006, published 2010).
Like-named read-outs stand apart in the source and are kept apart here.

Biological target: T1, human CA-II (Homo sapiens, UniProt P00918)
T1 construct: purchased Sigma-Aldrich C6165
Experiment: Carbonic Anhydrase-II (CA-II) Fluorimetric Assay-IC50 Determination
Type: biochemical
Conditions: for inhibition at 0.01 µM: at 10 nM (c7), read-out: CA-II % inhibition at concentration of column 7
Protocol: Carbonic Anhydrase-II (CA-II) Fluorimetric Assay-IC50 Determination
Compounds were diluted in DMSO at the concentration of 1 mM, then 50 μM and transferred to a 96-well plate for further dilutions (1:3 dilution, 11 points) in duplicate. Highest final concentration of compound in this CA-II Fluorimetric assay is 1 μM. Assays were conducted in a final volume of 100 μL in 50 mM Tris/HCl (pH 7.6), 100 mM Na2SO4 and 0.005% Tween-20 in a 96-well black assay plate. Fluorescein diacetate was used as the substrate. Enzyme inhibition was determined by pipetting 8 μL of human CA-II (5 nM, from Sigma-Aldrich, product #: C6165) into assay plate contained 2 μL of compound and 2 μL of substrate (10 μM) in 88 μL of assay buffer. The rate of the hydrolysis of fluorescein diacetate were measured spectrophometrically at 488 nm (excitation), 538 nm (emission) and 530 nm (cutoff) using a Molecular Devices SpectraMax M2 fluorescence reader at 25° C.

[1] = given instead of Kd (ND), read-out: CA-II IC50
[2] = Kd ND, IC50 given instead, read-out: CA-II IC50 (where Kd is ND)

SMILES | inhibition at 0.01 µM | IC50 [1] | IC50 [2]
Cc1csc(CN(C)C(=O)c2nc(Cc3ccccc3)n(-c3ccc(S(N)(=O)=O)cc3)n2)n1 [Example R-56, 1-[4-(aminosulfonyl)phenyl]-5-benzyl-N-methyl-N-[(4-methyl-13-thiazol-2-yl)methyl]-1H-124-triazole-3-carboxamide] | 95% | – | –
NS(=O)(=O)c1ccc(-n2nc(C(=O)N3CCc4nocc4C3)nc2Cc2ccccc2)cc1 [Example R-57, 4-[5-benzyl-3-(67-dihydroisoxazolo[43-c]pyridin-5(4H)-ylcarbonyl)-1H-124-triazol-1-yl]benzenesulfonamide] | 96% | – | –
CCCN(CCc1ccccn1)C(=O)c1nc(Cc2ccccc2)n(-c2ccc(S(N)(=O)=O)cc2)n1 [Example R-58, 1-[4-(aminosulfonyl)phenyl]-5-benzyl-N-propyl-N-(2-pyridin-2-ylethyl)-1H-124-triazole-3-carboxamide] | 98% | – | –
NS(=O)(=O)c1ccc(-n2nc(C(=O)N3CC(CO)C(c4ccccn4)C3)nc2Cc2ccccc2)cc1 (stereo not drawn) [Example R-59, 4-(5-benzyl-3-{[(3R4R)-3-(hydroxymethyl)-4-pyridin-2-ylpyrrolidin-1-yl]carbonyl}-1H-124-triazol1-yl)benzenesulfonamide] | 97% | – | –
Cc1nc(CN(C)C(=O)c2nc(Cc3ccccc3)n(-c3ccc(S(N)(=O)=O)cc3)n2)cs1 [Example R-60, 1-[4-(aminosulfonyl)phenyl]-5-benzyl-N-methyl-N-[(2-methyl-13-thiazol-4-yl)methyl]-1H-124-triazole-3-carboxamide] | 92% | – | –
NS(=O)(=O)c1ccc(-n2nc(C(=O)N3CCc4conc4CC3)nc2Cc2ccccc2)cc1 [Example R-61, 4-[5-benzyl-3-(4578-tetrahydro-6H-isoxazolo[34-d]azepin-6-ylcarbonyl)-1H-124-triazol-1-yl]benzenesulfonamide] | 94% | – | –
CN(CCc1cn[nH]c1)C(=O)c1nc(Cc2ccccc2)n(-c2ccc(S(N)(=O)=O)cc2)n1 [Example R-62, 1-[4-(aminosulfonyl)phenyl]-5-benzyl-N-methyl-N-[2-(1H-pyrazol-4-yl)ethyl]-1H-124-triazole-3-carboxamide] | 96% | – | –
Cc1noc(C2CCN(C(=O)c3nc(Cc4ccccc4)n(-c4ccc(S(N)(=O)=O)cc4)n3)C2)n1 (stereo not drawn) [Example R-63, 4-(5-benzyl-3-{[3-(3-methyl-124-oxadiazol-5-yl)pyrrolidin-1-yl]carbonyl}-1H-124-triazol-1-yl)benzenesulfonamide] | 95% | – | –
Cc1cc(CN(C)C(=O)c2nc(Cc3ccccc3)n(-c3ccc(S(N)(=O)=O)cc3)n2)on1 [Example R-64, 1-[4-(aminosulfonyl)phenyl]-5-benzyl-N-methyl-N-[(3-methylisoxazol-5-yl)methyl]-1H-124-triazole-3-carboxamide] | 94% | 2.95 nM | –
Cc1ncsc1CCN(C)C(=O)c1nc(Cc2ccccc2)n(-c2ccc(S(N)(=O)=O)cc2)n1 [Example R-65, 1-[4-(aminosulfonyl)phenyl]-5-benzyl-N-methyl-N-[2-(4-methyl-13-thiazol-5-yl)ethyl]-1H-124-triazole-3-carboxamide] | 90% | – | –
Cc1cc(C)n(CCN(C)C(=O)c2nc(Cc3ccccc3)n(-c3ccc(S(N)(=O)=O)cc3)n2)n1 [Example R-66, 1-[4-(aminosulfonyl)phenyl]-5-benzyl-N-[2-(35-dimethyl-1H-pyrazol-1-yl)ethyl]-N-methyl-1H-124-triazole-3-carboxamide] | 88% | 3.55 nM | –
NS(=O)(=O)c1ccc(-n2nc(C(=O)N3CCCC(c4cc[nH]n4)C3)nc2Cc2ccccc2)cc1 (stereo not drawn) [Example R-67, 4-(5-benzyl-3-{[3-(1H-pyrazol-3-yl)piperidin-1-yl]carbonyl}-1H-124-triazol-1-yl)benzenesulfonamide] | 97% | 3.72 nM | –

Second part, the compound after the results:

inhibition at 0.01 µM | IC50 [1] | IC50 [2] | SMILES
92% | 3.75 nM | – | NS(=O)(=O)c1ccc(-n2nc(C(=O)N3CCCC3Cc3cccnc3)nc2Cc2ccccc2)cc1 (stereo not drawn) [Example R-68, 4-(5-benzyl-3-{[2-(pyridin-3-ylmethyl)pyrrolidin-1-yl]carbonyl}-1H-124-triazol-1-yl)benzenesulfonamide]
97% | 3.49 nM | – | NS(=O)(=O)c1ccc(-n2nc(C(=O)N3CCC(c4cccnc4)C3)nc2Cc2ccccc2)cc1 (stereo not drawn) [Example R-69, 4-{5-benzyl-3-[(3-pyridin-3-ylpyrrolidin-1-yl)carbonyl]-1H-124-triazol-1-yl}benzenesulfonamide]
94% | 3.06 nM | – | CCc1nc(CN(C)C(=O)c2nc(Cc3ccccc3)n(-c3ccc(S(N)(=O)=O)cc3)n2)no1 [Example R-70, 1-[4-(aminosulfonyl)phenyl]-5-benzyl-N-[(5-ethyl-124-oxadiazol-3-yl)methyl]-N-methyl-1H-124-triazole-3-carboxamide]
– | – | 3.5 nM | CC(C)C1(CO)CCN(C(=O)c2nc(Cc3ccccc3)n(-c3ccc(S(N)(=O)=O)cc3)n2)CC1 [Example R-73, 4-(5-benzyl-3-{[4-(hydroxymethyl)-4-isopropylpiperidin-1-yl]carbonyl}-1H-124-triazol-1-yl)benzenesulfonamide]
– | – | 3.43 nM | N#CCCN(C(=O)c1nc(Cc2ccccc2)n(-c2ccc(S(N)(=O)=O)cc2)n1)C1CCCC1 [Example R-74, 1-[4-(aminosulfonyl)phenyl]-5-benzyl-N-(2-cyanoethyl)-N-cyclopentyl-1H-124-triazole-3-carboxamide]
– | – | 3.19 nM | NS(=O)(=O)c1ccc(-n2nc(C(=O)N3CC(Cc4ccccc4)C3)nc2Cc2ccccc2)cc1 [Example R-91, 4-{5-benzyl-3-[(3-benzylazetidin-1-yl)carbonyl]-1H-124-triazol-1-yl}benzenesulfonamide]
– | – | 3.35 nM | CCCN(CC1CCCO1)C(=O)c1nc(Cc2ccccc2)n(-c2ccc(S(N)(=O)=O)cc2)n1 (stereo not drawn) [Example R-95, 1-[4-(aminosulfonyl)phenyl]-5-benzyl-N-propyl-N-(tetrahydrofuran-2-ylmethyl)-1H-124-triazole-3-carboxamide]
– | – | 3.34 nM | CC(C)(C)N(CCC#N)C(=O)c1nc(Cc2ccccc2)n(-c2ccc(S(N)(=O)=O)cc2)n1 [Example R-96, 1-[4-(aminosulfonyl)phenyl]-5-benzyl-N-(tert-butyl)-N-(2-cyanoethyl)-1H-124-triazole-3-carboxamide]
– | – | 3.48 nM | CN(CC(F)(F)F)C(=O)c1nc(Cc2ccccc2)n(-c2ccc(S(N)(=O)=O)cc2)n1 [Example R-101, 1-[4-(aminosulfonyl)phenyl]-5-benzyl-N-methyl-N-(222-trifluoroethyl)-1H-124-triazole-3-carboxamide]
– | – | 3 nM | CCN(Cc1ccccc1)C(=O)c1nc(Cc2ccccc2)n(-c2ccc(S(N)(=O)=O)cc2)n1 [Example R-102, 1-[4-(aminosulfonyl)phenyl]-N5-dibenzyl-N-ethyl-1H-124-triazole-3-carboxamide]
– | – | 3.12 nM | COc1cccc(CN(C)C(=O)c2nc(Cc3ccccc3)n(-c3ccc(S(N)(=O)=O)cc3)n2)c1 [Example R-103, 1-[4-(aminosulfonyl)phenyl]-5-benzyl-N-(3-methoxybenzyl)-N-methyl-1H-124-triazole-3-carboxamide]
– | – | 3.51 nM | CC(C)C1CCCCN1C(=O)c1nc(Cc2ccccc2)n(-c2ccc(S(N)(=O)=O)cc2)n1 (stereo not drawn) [Example R-104]
– | – | 3.28 nM | CN(CC1CCCCO1)C(=O)c1nc(Cc2ccccc2)n(-c2ccc(S(N)(=O)=O)cc2)n1 (stereo not drawn) [Example R-106, 1-[4-(aminosulfonyl)phenyl]-5-benzyl-N-methyl-N-(tetrahydro-2H-pyran-2-ylmethyl)-1H-124-triazole-3-carboxamide]
– | – | 3.61 nM | CN(Cc1ccccc1)C(=O)c1nc(Cc2ccccc2)n(-c2ccc(S(N)(=O)=O)cc2)n1 [Example R-109, 1-[4-(aminosulfonyl)phenyl]-N5-dibenzyl-N-methyl-1H-124-triazole-3-carboxamide]
– | – | 3.14 nM | NS(=O)(=O)c1ccc(-n2nc(C(=O)N3C[C@@H](F)[C@H](F)C3)nc2Cc2ccccc2)cc1 [Example R-111, 4-(5-benzyl-3-{[(3R4R)-34-difluoropyrrolidin-1-yl]carbonyl}-1H-124-triazol-1-yl)benzenesulfonamide]
